Assay results: patent publication US20240083857A1, “2-Methyl-Quinazolines” (Bayer Pharma Aktiengesellschaft, priority 2017, published 2024)

How the values were obtained:
[1] = biological target: human SOS1 (nucleotide exchange of K-Ras^G12C) (Homo sapiens, UniProt Q07889); test: Biochemical assay 2: K-Ras^G12C activation assay by hSOS1 at high GTP concentration (HTRF); settings: high GTP; for IC50: read-out: Assay 2 (KRAS-Activation by SOS high GTP) activity expressed as IC50; for inhibition at 20 µM: read-out: Assay 2 (KRAS-Activation by SOS high GTP) activity expressed as % inhibition at 20 μM
Excerpt: Biochemical Assay 2: K-Ras^G12C Activation Assay by hSOS1 at High GTP Concentration
This assay quantifies human SOS1-mediated nucleotide exchange of K-Ras^G12C preloaded with a fluorescent […] and in presence of an excess of free GTP. Loaded hK-Ras^G12C generates a high HTRF-signal by energy transfer from antiGST-Terbium (FRET donor) bound to K-Ras to the loaded fluorescent GDP analog (FRET-acceptor). SOS1 activity exchanges the fluorescent GDP for non-fluorescent GTP and therefore leads to a reduction of the HTRF signal.
The fluorescent GDP-analog EDA-GDP-Dy647P1 (2′/3′-O-(2-Aminoethyl-carbamoyl)-guanosine-5′-diphosphate labelled with Dy647P1 (Dyomics GmbH, Germany)) was synthesized by Jena Biosciences GmbH (Germany) and supplied as a 1 mM aqueous solution.
Concentrations of protein batches used were optimized to be within the linear range of the HTRF signal.
Preparation of GST-tagged hK-Ras^Gl2C loaded with fluorescent nucleotide was performed as follows: incubation of 11.5 μM hK-Ras^Gl2C with 5-fold excess GDP-Dy647 nucleotide (54 μM) in 500 μl NLS-buffer (RAS activation Kit Jena Bioscience, Kat. #PR-950) for 10 min at 37° C. Addition of 20 μl 1 M MgCl2 (Sigma) to final 40 mM and store on ice. Purification into buffer (10 mM HEPES pH 7.4 (Applichem), 150 mM NaCl (Sigma), 5 mM MgCl2 (Sigma)) by use of a PD-Minitrap desalting column (GE Healthcare). Concentration of 1 ml purified hK-Ras-GDP-Dy647 is approx. 4-5 μM.
The assay buffer contained 10 mM HEPES pH 7.4 (Applichem), 150 mM NaCl (Sigma), 5 mM MgCl2 (Sigma), 1 mM DTT (Thermofisher), 0.05% BSA Fraction V, pH 7.0, (ICN Biomedicals), 0.0025% (v/v) Igepal (Sigma).
A Ras working solution was prepared in assay buffer containing typically 80 nM loaded GST-hK-RasG12C-EDA-GDP-Dy647P1 and 2 nM antiGST-Tb (Cisbio, France). A hSOS1 working solution was prepared in assay buffer containing typically 8 nM His-hSOS1 and 100 μM GTP (Jena Bioscience, Germany). An inhibitor control solution was prepared in assay buffer containing the same concentration of […].
(§1) Fifty nl of a 100-fold concentrated solution of the test compound in DMSO were transferred into a black microtiter test plate (384 or 1536, Greiner Bio-One, Germany). For this, either a Hummingbird liquid handler (Digilab, MA, USA) or an Echo acoustic system (Labcyte, CA, USA) was used.
(§2) All steps of the assay were performed at 20° C. A volume of 2.5 μl of the Ras working solution was added to all wells of the test plate using a Multidrop dispenser (Thermo Labsystems). After 2 min preincubation, 2.5 μl of the hSOS1 working solution were added to all wells except for those wells at the side of the test plate that were subsequently filled with 2.5 μl of the inhibitor control solution. After 20 min incubation the fluorescence was measured with a Pherastar (BMG, Germany) using the HTRF module (excitation 337 nm, emission 1: 620 nm, emission 2: 665 nm).
(§3) IC50 values were calculated by 4-Parameter fitting using a commercial software package (Genedata Screener, Switzerland).

[2] = biological target: human SOS1 (loading of human K-Ras^G12C-GDP with fluorescent GTP-analog) (Homo sapiens, UniProt Q07889); test: Biochemical assay 3: K-Ras^G12C activation assay by hSOS1 (HTRF); settings: no GTP; for IC50: read-out: Assay 3 (KRAS-Activation by SOS no GTP) activity expressed as IC50; for inhibition at 20 µM: read-out: Assay 3 (KRAS-Activation by SOS no GTP) activity expressed as % inhibition at 20 μM
[3] = biological target: K-Ras^G12C : hSOS1 interaction (Homo sapiens, UniProt Q07889); test: Biochemical assay 1: K-Ras^G12C interaction assay with hSOS1 (HTRF); type: binding; settings: for IC50: read-out: Assay 1 (KRAS-SOS Interaction) activity expressed as IC50
Procedure: Biochemical assay 1: K-Ras^G12C Interaction Assay with hSOS1
This assay quantifies the equilibrium interaction of human SOS1 with K-Ras^Gl2C. Detection of the interaction is achieved by measuring homogenous time-resolved fluorescence resonance energy transfer (HTRF) from antiGST-Europium (FRET donor) bound to GST-K-Ras^G12C to anti-6His-XL665 bound to His-tagged hSOS1 (FRET-acceptor).
The assay buffer contained 5 mM HEPES pH 7.4 (Applichem), 150 mM NaCl (Sigma), 10 mM EDTA (Promega), 1 mM DTT (Thermofisher), 0.05% BSA Fraction V, pH 7.0, (ICN Biomedicals), 0.0025% (v/v) Igepal (Sigma) and 100 mM KF (FLUKA).
Concentrations of protein batches used were optimized to be within the linear range of the HTRF signal. A Ras working solution was prepared in assay buffer containing typically 10 nM GST-hK-RasG12C and 2 nM antiGST-Eu(K) (Cisbio, France). A SOS working solution was prepared in assay buffer containing typically 20 nM His-hSOS1 and 10 nM anti-6His-XL665 (Cisbio, France). An inhibitor control solution was prepared in assay buffer containing 10 nM anti-6His-XL665 without hSOS1.
as §1
as §2, with “the SOS” for “the hSOS1”, “After 60” for “After 20”
as §3

## COc1cc2nc(C)nc(N[C@@H](C)c3ccc(-c4ccccc4C(=O)N(C)C)s3)c2cc1OC (racemic) [Example 48, 2-(5-{1-[(6,7-dimethoxy-2-methylquinazolin-4-yl)amino]ethyl}thiophen-2-yl)-N,N-dimethylbenzamide]
[1]
  IC50: 3.27 µM
[2]
  IC50: 4.52 µM
[3]
  IC50: 2120 nM

## COc1cc2nc(C)nc(N[C@@H](C)c3ccc(-c4ccncc4C)s3)c2cc1OC (racemic) [Example 53, 6,7-dimethoxy-2-methyl-N-{1-[5-(3-methylpyridin-4-yl)thiophen-2-yl]ethyl}quinazolin-4-amine]
[1]
  IC50: 1.28 µM
[2]
  IC50: 1.08 µM
[3]
  IC50: 669 nM

## COc1cc2nc(C)nc(N[C@@H](C)c3ccc(-c4ccc5cc[nH]c5c4)s3)c2cc1OC (racemic) [Example 54, N-{1-[5-(1H-indol-6-yl)thiophen-2-yl]ethyl}-6,7-dimethoxy-2-methylquinazolin-4-amine]
[1]
  IC50: 4.13 µM
[2]
  IC50: 4.07 µM
[3]
  IC50: 4190 nM

## COc1cc2nc(C)nc(N[C@@H](C)c3ccc(-c4cncc(S(C)(=O)=O)c4)s3)c2cc1OC (racemic) [Example 127]
[1]
  inhibition at 20 µM: 44%
[2]
  inhibition at 20 µM: 42%
[3]
  IC50: 17800 nM

## COc1cc2nc(C)nc(N[C@@H](C)c3ccc(-c4cnc5[nH]ccc5c4)s3)c2cc1OC (racemic) [Example 129, 6,7-dimethoxy-2-methyl-N-{1-[5-(1H-pyrrolo[2,3-b]pyridin-5-yl)thiophen-2-yl]ethyl}quinazolin-4-amine]
[1]
  IC50: 2.38 µM
[2]
  IC50: 3.45 µM
[3]
  IC50: 1480 nM

## COc1cc2nc(C)nc(N[C@@H](C)c3ccc(-c4cccc(S(N)(=O)=O)c4)s3)c2cc1OC (racemic) [Example 130, 3-(5-{1-[(6,7-dimethoxy-2-methylquinazolin-4-yl)amino]ethyl}thiophen-2-yl)benzenesulfonamide]
[1]
  IC50: 4.31 µM
[2]
  IC50: 11.7 µM
[3]
  IC50: 3430 nM

## COc1cc2nc(C)nc(N[C@@H](C)c3ccc(-c4cnc(N)nc4)s3)c2cc1OC (racemic) [Example 131, N-{1-[5-(2-aminopyrimidin-5-yl)thiophen-2-yl]ethyl}-6,7-dimethoxy-2-methylquinazolin-4-amine]
[1]
  IC50: 3.37 µM
[2]
  IC50: 5.94 µM
[3]
  IC50: 2230 nM

## COc1cc2nc(C)nc(N[C@@H](C)c3ccc(/C=C/C4CC4)s3)c2cc1OC (racemic) [Example 132, N-[1-{5-[(E)-2-cyclopropylethenyl]thiophen-2-yl}ethyl]-6,7-dimethoxy-2-methylquinazolin-4-amine]
[1]
  IC50: 8.05 µM
[2]
  inhibition at 20 µM: 46%
[3]
  IC50: 6580 nM

## CCOCc1ccccc1-c1ccc([C@H](C)Nc2nc(C)nc3cc(OC)c(OC)cc23)s1 (racemic) [Example 133, N-[1-{5-[2-(ethoxymethyl)phenyl]thiophen-2-yl}ethyl]-6,7-dimethoxy-2-methylquinazolin-4-amine]
[1]
  IC50: 4.03 µM
[2]
  IC50: 5.67 µM
[3]
  IC50: 4300 nM

## COc1cc2nc(C)nc(N[C@@H](C)c3ccc(-c4ccc(C(=O)NCCN(C)C)cc4)s3)c2cc1OC (racemic) [Example 142, 4-(5-{1-[(6,7-dimethoxy-2-methylquinazolin-4-yl)amino]ethyl}thiophen-2-yl)-N-[2-(dimethylamino)ethyl]benzamide]
[1]
  IC50: 1.81 µM
[2]
  IC50: 1.02 µM
[3]
  IC50: 1010 nM

## C/C=C(\C)c1ccc([C@H](C)Nc2nc(C)nc3cc(OC)c(OC)cc23)s1 (racemic) [Example 143, N-[1-{5-[(2E)-but-2-en-2-yl]thiophen-2-yl}ethyl]-6,7-dimethoxy-2-methylquinazolin-4-amine]
[1]
  IC50: 8.76 µM
[2]
  IC50: 17.8 µM
[3]
  IC50: 7640 nM

## COc1cc2nc(C)nc(N[C@@H](C)c3ccc(/C=C/Cc4ccccc4)s3)c2cc1OC (racemic) [Example 145, 6,7-dimethoxy-2-methyl-N-[1-{5-[(1E)-3-phenylprop-1-en-1-yl]thiophen-2-yl}ethyl]quinazolin-4-amine]
[1]
  inhibition at 20 µM: 18%
[2]
  inhibition at 20 µM: 11%
[3]; read-out: Assay 1 (KRAS-SOS Interaction) activity expressed as % inhibition at 20 μM
  inhibition at 20 µM: 40%

## COc1cc2nc(C)nc(N[C@@H](C)c3ccc(-c4cc(N)ccc4C)s3)c2cc1OC (racemic) [Example 146, N-{1-[5-(5-amino-2-methylphenyl)thiophen-2-yl]ethyl}-6,7-dimethoxy-2-methylquinazolin-4-amine]
[1]
  IC50: 1.5 µM
[2]
  IC50: 1.48 µM
[3]
  IC50: 911 nM

## COc1cc2nc(C)nc(N[C@@H](C)c3ccc(-c4c(C)noc4C)s3)c2cc1OC (racemic) [Example 147, N-{1-[5-(3,5-dimethyl-1,2-oxazol-4-yl)thiophen-2-yl]ethyl}-6,7-dimethoxy-2-methylquinazolin-4-amine]
[1]
  IC50: 0.767 µM
[2]
  IC50: 0.658 µM
[3]
  IC50: 397 nM

## COc1cc2nc(C)nc(N[C@@H](C)c3ccc(-c4ccccc4S(C)(=O)=O)s3)c2cc1OC (racemic) [Example 148, 6,7-dimethoxy-2-methyl-N-[1-{5-[2-(methylsulfonyl)phenyl]thiophen-2-yl}ethyl]quinazolin-4-amine]
[1]
  IC50: 3.4 µM
[2]
  IC50: 3.06 µM
[3]
  IC50: 1410 nM

## COc1cc2nc(C)nc(N[C@@H](C)c3ccc(-c4ccccc4OC(F)(F)F)s3)c2cc1OC (racemic) [Example 150, 6,7-dimethoxy-2-methyl-N-[1-{5-[2-(trifluoromethoxy)phenyl]thiophen-2-yl}ethyl]quinazolin-4-amine]
[1]
  IC50: 13.2 µM
[2]
  IC50: 13.2 µM
[3]
  IC50: 7360 nM

## COc1cc2nc(C)nc(N[C@@H](C)c3ccc(-c4ccc5[nH]ccc5c4)s3)c2cc1OC (racemic) [Example 152, N-{1-[5-(1H-indol-5-yl)thiophen-2-yl]ethyl}-6,7-dimethoxy-2-methylquinazolin-4-amine]
[1]
  IC50: 7.33 µM
[2]
  IC50: 11.1 µM
[3]
  IC50: 5480 nM
